Data from PubChem BioAssay AID256 (DTP/NCI, 2004).
“And” between values parts separate entries of the source, which are not always exact repeats. Equal entries are not always repeated. Toxic doses and inconclusive results are not listed. Rule for the calls: active = survival T/C of 150% or more; inactive = T/C below 125% in these data.

Tested on: CD2F1 mice, L1210 leukemia ip, survival T/C
Assay: NCI In Vivo Anticancer Drug Screen. Data for tumor model L1210 Leukemia (intraperitoneal) in CD2F1 (CDF1) mice
Conditions: higher = longer survival
Outline: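 Each value reflects a quotient of treated over vehicle control outcomes in mice with a transplanted tumor.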

[1] = endpoint: mean survival time, dose: 100.0 mg/kg/injection, schedule: Q04DX003 (ip), vehicle: saline with Tween-80
[2] = endpoint: mean survival time, dose: 200.0 mg/kg/injection, schedule: Q04DX003 (ip), vehicle: saline with Tween-80
[3] = endpoint: mean survival time, dose: 400.0 mg/kg/injection, schedule: Q04DX003 (ip), vehicle: saline with Tween-80
[4] = endpoint: mean survival time, dose: 100.0 mg/kg/injection, schedule: Q01DX001 (ip), vehicle: saline with Tween-80
[5] = endpoint: mean survival time, dose: 200.0 mg/kg/injection, schedule: Q01DX001 (ip), vehicle: saline with Tween-80
[6] = endpoint: mean survival time, dose: 400.0 mg/kg/injection, schedule: Q01DX001 (ip), vehicle: saline with Tween-80
[7] = endpoint: mean survival time, dose: 100.0 mg/kg/injection, schedule: Q01DX009 (ip), vehicle: saline with Tween-80
[8] = endpoint: mean survival time, dose: 200.0 mg/kg/injection, schedule: Q01DX009 (ip), vehicle: saline with Tween-80
[9] = endpoint: mean survival time, dose: 400.0 mg/kg/injection, schedule: Q01DX009 (ip), vehicle: saline with Tween-80
[10] = endpoint: mean survival time, dose: 100.0 mg/kg/injection, schedule: Q04DX003 (ip), vehicle: saline
[11] = endpoint: mean survival time, dose: 200.0 mg/kg/injection, schedule: Q04DX003 (ip), vehicle: saline
[12] = endpoint: mean survival time, dose: 400.0 mg/kg/injection, schedule: Q04DX003 (ip), vehicle: saline
[13] = endpoint: mean survival time, dose: 100.0 mg/kg/injection, schedule: Q04DX002 (ip), vehicle: saline with Tween-80
[14] = endpoint: mean survival time, dose: 200.0 mg/kg/injection, schedule: Q04DX002 (ip), vehicle: saline with Tween-80
[15] = endpoint: mean survival time, dose: 400.0 mg/kg/injection, schedule: Q04DX002 (ip), vehicle: saline with Tween-80

Measured: T/C

O=c1[nH]c(=O)n(CCCO)cc1F
inactive: endpoint: mean survival time, dose: 12.5 mg/kg/injection, schedule: Q01DX005 (ip), vehicle: water 111 % of control | endpoint: mean survival time, dose: 25.0 mg/kg/injection, schedule: Q01DX005 (ip), vehicle: water 115 % of control and 103 % of control | endpoint: mean survival time, dose: 50.0 mg/kg/injection, schedule: Q01DX005 (ip), vehicle: water 122 % of control and 123 % of control | endpoint: mean survival time, dose: 200.0 mg/kg/injection, schedule: Q01DX005 (ip), vehicle: water 96 % of control

COc1nc(NC2OC(CO)C(O)C(O)C2O)c(C(C)=O)c(=O)[nH]1 (stereo not given)
inactive: endpoint: median survival time, dose: 12.5 mg/kg/injection, schedule: Q01DX005 (ip), vehicle: saline 97 % of control | endpoint: median survival time, dose: 25.0 mg/kg/injection, schedule: Q01DX005 (ip), vehicle: saline 98 % of control | endpoint: median survival time, dose: 50.0 mg/kg/injection, schedule: Q01DX005 (ip), vehicle: saline 98 % of control | endpoint: median survival time, dose: 100.0 mg/kg/injection, schedule: Q01DX005 (ip), vehicle: saline 97 % of control | endpoint: median survival time, dose: 200.0 mg/kg/injection, schedule: Q01DX005 (ip), vehicle: saline 98 % of control

CSc1cccc(NC2=NCCO2)c1
inactive: [1] 90 % of control | [2] 93 % of control | [3] 86 % of control

O=C(O)/C=C/S(=O)(=O)O
inactive: endpoint: mean survival time, dose: 9.5 mg/kg/injection, schedule: Q01DX001 (ip), vehicle: saline 96 % of control | endpoint: mean survival time, dose: 19.0 mg/kg/injection, schedule: Q01DX001 (ip), vehicle: saline 98 % of control | endpoint: mean survival time, dose: 38.0 mg/kg/injection, schedule: Q01DX001 (ip), vehicle: saline 98 % of control | endpoint: mean survival time, dose: 75.0 mg/kg/injection, schedule: Q01DX001 (ip), vehicle: saline 100 % of control

CC(=O)Oc1cc(Cl)c(Cl)cc1Cl
inactive: [4] 108 % of control | [5] 97 % of control | [6] 94 % of control

COC1CCC(/C(C#N)=C/C2CCC(N(C)C)CC2)CC1 (stereo not given)
inactive: [7] 89 % of control | [8] 100 % of control | [9] 96 % of control

CCNC(=O)c1ccccc1N=NN(C)C
inactive: endpoint: mean survival time, dose: 18.7 mg/kg/injection, schedule: Q01DX009 (ip), vehicle: Klucel (hydroxypropylcellulose) (HPC) 105 % of control | endpoint: mean survival time, dose: 18.75 mg/kg/injection, schedule: Q01DX009 (ip), vehicle: Klucel (hydroxypropylcellulose) (HPC) 92 % of control and 97 % of control

CCCCNC(=O)Nc1ccc(Cl)cc1
inactive: [4] 88 % of control | [5] 86 % of control | [6] 88 % of control

CC(C)(C(=O)O)C(C)(C)C(=O)O
inactive: [4] 98 % of control | [5] 98 % of control | [6] 101 % of control

CCC(c1ccc2cc(OC)ccc2c1)C(C(=O)O)C(=O)O (stereo not given)
inactive: endpoint: mean survival time, dose: 100.0 mg/kg/injection, schedule: Q04DX003 (ip), vehicle: Klucel (hydroxypropylcellulose) (HPC) 95 % of control | endpoint: mean survival time, dose: 200.0 mg/kg/injection, schedule: Q04DX003 (ip), vehicle: Klucel (hydroxypropylcellulose) (HPC) 93 % of control

O=C(OC1C2C=COC(OC3OC(CO)C(O)C(O)C3O)C2C2(CO)OC12)c1ccc(O)cc1 (stereo not given)
inactive: endpoint: mean survival time, dose: 25.0 mg/kg/injection, schedule: Q01DX001 (ip), vehicle: carboxymethylcellulose (CMC) 101 % of control | endpoint: mean survival time, dose: 50.0 mg/kg/injection, schedule: Q01DX001 (ip), vehicle: carboxymethylcellulose (CMC) 98 % of control | endpoint: mean survival time, dose: 100.0 mg/kg/injection, schedule: Q01DX001 (ip), vehicle: carboxymethylcellulose (CMC) 89 % of control

COCC1C(N)C(C)NC(Cl)C1C#N (stereo not given)
inactive: [7] 97 % of control | [1] 95 % of control | [8] 97 % of control | [2] 100 % of control | [3] 100 % of control

CCOC(=O)c1ccc(NC(=O)NC)cc1
inactive: [7] 93 % of control | [1] 92 % of control | [8] 93 % of control | [2] 93 % of control | [9] 93 % of control | [3] 101 % of control

N#CC(OC1OC(COC2OC(CO)C(O)C(O)C2O)C(O)C(O)C1O)c1ccccc1 (stereo not given)
inactive: endpoint: mean survival time, dose: 12.5 mg/kg/injection, schedule: Q01DX009 (ip), vehicle: water 94 % of control | endpoint: mean survival time, dose: 25.0 mg/kg/injection, schedule: Q01DX009 (ip), vehicle: water 88 % of control and 104 % of control | endpoint: mean survival time, dose: 50.0 mg/kg/injection, schedule: Q01DX009 (ip), vehicle: water 98 % of control and 102 % of control | endpoint: mean survival time, dose: 100.0 mg/kg/injection, schedule: Q01DX009 (ip), vehicle: water 94 % of control and 96 % of control | endpoint: mean survival time, dose: 200.0 mg/kg/injection, schedule: Q01DX009 (ip), vehicle: water 91 % of control and 102 % of control | endpoint: mean survival time, dose: 400.0 mg/kg/injection, schedule: Q01DX009 (ip), vehicle: water 95 % of control and 97 % of control | endpoint: mean survival time, dose: 800.0 mg/kg/injection, schedule: Q01DX009 (ip), vehicle: water 93 % of control and 100 % of control

CCCNC(C)=O
inactive: [10] 97 % of control | [11] 97 % of control | [12] 100 % of control

CCN(CCNC(=O)Nc1ccccc1OC)c1ccccc1
inactive: [13] 98 % of control | [14] 94 % of control | [15] 94 % of control

O=C(O)c1c(Cl)cccc1Br
inactive: [13] 95 % of control | [14] 95 % of control | [15] 98 % of control

COc1ccccc1NC(=O)CSC(N)=O
inactive: endpoint: mean survival time, dose: 50.0 mg/kg/injection, schedule: Q01DX001 (ip), vehicle: saline 98 % of control | endpoint: mean survival time, dose: 100.0 mg/kg/injection, schedule: Q01DX001 (ip), vehicle: saline 97 % of control | endpoint: mean survival time, dose: 100.0 mg/kg/injection, schedule: Q01DX009 (ip), vehicle: saline 102 % of control | [10] 94 % of control | endpoint: mean survival time, dose: 200.0 mg/kg/injection, schedule: Q01DX001 (ip), vehicle: saline 103 % of control | endpoint: mean survival time, dose: 200.0 mg/kg/injection, schedule: Q01DX009 (ip), vehicle: saline 93 % of control | [11] 91 % of control | endpoint: mean survival time, dose: 400.0 mg/kg/injection, schedule: Q01DX001 (ip), vehicle: saline 97 % of control | endpoint: mean survival time, dose: 400.0 mg/kg/injection, schedule: Q01DX009 (ip), vehicle: saline 96 % of control | [12] 91 % of control

CCCCOC(=O)/C=C\C(=O)OC(C)C(=O)OCCCC (stereo not given)
inactive: endpoint: median survival time, dose: 50.0 mg/kg/injection, schedule: Q04DX002 (ip), vehicle: saline with Tween-80 100 % of control | endpoint: median survival time, dose: 100.0 mg/kg/injection, schedule: Q04DX002 (ip), vehicle: saline with Tween-80 100 % of control | endpoint: median survival time, dose: 200.0 mg/kg/injection, schedule: Q04DX002 (ip), vehicle: saline with Tween-80 100 % of control | endpoint: median survival time, dose: 400.0 mg/kg/injection, schedule: Q04DX002 (ip), vehicle: saline with Tween-80 88 % of control

Nc1nc(Nc2ccc(C(=O)O)cc2)n[nH]1
inactive: endpoint: mean survival time, dose: 100.0 mg/kg/injection, schedule: Q01DX001 (ip), vehicle: saline sonified 96 % of control | endpoint: mean survival time, dose: 100.0 mg/kg/injection, schedule: Q01DX009 (ip), vehicle: saline sonified 105 % of control | endpoint: mean survival time, dose: 200.0 mg/kg/injection, schedule: Q01DX001 (ip), vehicle: saline sonified 104 % of control | endpoint: mean survival time, dose: 200.0 mg/kg/injection, schedule: Q01DX009 (ip), vehicle: saline sonified 96 % of control | endpoint: mean survival time, dose: 400.0 mg/kg/injection, schedule: Q01DX001 (ip), vehicle: saline sonified 96 % of control | endpoint: mean survival time, dose: 400.0 mg/kg/injection, schedule: Q01DX009 (ip), vehicle: saline sonified 88 % of control

Oc1c(O)c(Br)c(Br)c(Br)c1Br
inactive: endpoint: mean survival time, dose: 100.0 mg/kg/injection, schedule: Q01DX001 (ip), vehicle: other 98 % of control | endpoint: mean survival time, dose: 200.0 mg/kg/injection, schedule: Q01DX001 (ip), vehicle: other 103 % of control

CC(=O)OCC1OC(OC(C)=O)C(NC(=O)N(CCN(C)CCO)N=O)C(OC(C)=O)C1OC(C)=O (stereo not given)
inactive: endpoint: mean survival time, dose: 4.06 mg/kg/injection, schedule: Q04DX002 (ip), vehicle: saline + alcohol 100 % of control | endpoint: mean survival time, dose: 8.13 mg/kg/injection, schedule: Q04DX002 (ip), vehicle: saline + alcohol 101 % of control | endpoint: mean survival time, dose: 16.25 mg/kg/injection, schedule: Q04DX002 (ip), vehicle: saline + alcohol 101 % of control | endpoint: mean survival time, dose: 32.5 mg/kg/injection, schedule: Q04DX002 (ip), vehicle: saline + alcohol 97 % of control | endpoint: mean survival time, dose: 65.0 mg/kg/injection, schedule: Q04DX002 (ip), vehicle: saline + alcohol 101 % of control | endpoint: mean survival time, dose: 130.0 mg/kg/injection, schedule: Q04DX002 (ip), vehicle: saline + alcohol 107 % of control
